From US20150105252A1, “SUBSTITUTED PYRAZOLES AS HERBICIDES” (E I DU PONT DE NEMOURS AND COMPANY, priority 2013, published 2015)

Key:
[1] = tested on: crabgrass, large; experiment: Test A preemergence; type: in vivo, Digitaria sanguinalis; details: preemergence; for Crabgrass, Large plant response rating (0 to 100 scale): 125 g ai/ha, visual injury approx. 10 days after treatment; for Crabgrass, Large plant response rating: 500 g ai/ha, visual injury after approx. 10 days, 0 to 100 scale (0 no effect, 100 complete control)
Procedure, shortened: (§1)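 Both timings tested concurrently in loam/sand soil: preemergence by directed soil spray, postemergence on plants of 2–10 cm at the one- to two-leaf stage. Greenhouse holding period was approximately 10 days before visual injury assessment (0–100, 0 = no effect).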

[2] = tested on: wheat; experiment: Test A preemergence; type: in vivo, Triticum aestivum; details: preemergence; for Wheat plant response rating (0 to 100 scale): 125 g ai/ha, visual injury approx. 10 days after treatment; for Wheat plant response rating: 500 g ai/ha, visual injury after approx. 10 days, 0 to 100 scale (0 no effect, 100 complete control)
Procedure, shortened: as §1

[3] = tested on: morningglory; experiment: Test A postemergence; type: in vivo, Ipomoea spp.; details: Postemergence
Procedure, shortened: as §1

[4] = tested on: ragweed; experiment: Test C preemergence; type: in vivo, Ambrosia elation; details: preemergence; for Plant response rating, Ragweed: 125 g ai/ha, scale 0 to 100, 0 = no effect, 100 = complete control
Procedure, shortened: (§2)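 Visual control ratings on a 0–100 scale (100 = complete control) made against untreated controls after 13 to 15 days in greenhouse. Compounds applied in surfactant-containing solvent mixture, either preemergence to loam/sand-sown seeds or postemergence to 1- to 4-leaf plants (2–18 cm) in peat medium.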

[5] = tested on: soybean; experiment: Test C preemergence; type: in vivo, Glycine max; details: preemergence; for Plant response rating, Soybean: 125 g ai/ha, scale 0 to 100, 0 = no effect, 100 = complete control
Procedure, shortened: as §2

[6] = tested on: barnyardgrass; experiment: Test C preemergence; type: in vivo, Echinochloa crus-galli; details: preemergence; for Plant response rating, Barnyardgrass: 125 g ai/ha, scale 0 to 100, 0 = no effect, 100 = complete control
Procedure, shortened: as §2

[7] = tested on: waterhemp; experiment: Test C preemergence; type: in vivo, Amaranthus rudis; details: preemergence; for Plant response rating, Waterhemp: 125 g ai/ha, scale 0 to 100, 0 = no effect, 100 = complete control
Procedure, shortened: as §2

[8] = tested on: velvetleaf; experiment: Test C preemergence; type: in vivo, Abutilon theophrasti; details: preemergence; for Plant response rating, Velvetleaf: 125 g ai/ha, scale 0 to 100, 0 = no effect, 100 = complete control
Procedure, shortened: as §2

[9] = tested on: ryegrass, Italian; experiment: Test C postemergence; type: in vivo, Lolium multiflorum; details: postemergence
Procedure, shortened: as §2

[10] = tested on: corn; experiment: Test C postemergence; type: in vivo, Zea mays; details: for Plant response rating (scale of 0 to 100 where 0 is no effect and 100 is complete control), Corn: Postemergence, 31 g ai/ha, visually evaluated after 13 to 15 days; for Corn plant response rating / Plant response rating, Corn: postemergence; for Corn plant response rating: 62 g ai/ha, scale 0 to 100
Procedure, shortened: as §2

[11] = tested on: foxtail, giant; experiment: Test C postemergence; type: in vivo, Setaria faberii; details: for Plant response rating (scale of 0 to 100 where 0 is no effect and 100 is complete control), Foxtail, Giant: Postemergence, 31 g ai/ha, visually evaluated after 13 to 15 days; for Foxtail, Giant plant response rating / Plant response rating, Foxtail, Giant: postemergence; for Foxtail, Giant plant response rating: 62 g ai/ha, scale 0 to 100
Procedure, shortened: as §2

[12] = tested on: johnsongrass; experiment: Test C postemergence; type: in vivo, Sorghum halepense; details: for Plant response rating (scale of 0 to 100 where 0 is no effect and 100 is complete control), Johnsongrass: Postemergence, 31 g ai/ha, visually evaluated after 13 to 15 days; for Johnsongrass plant response rating / Plant response rating, Johnsongrass: postemergence; for Johnsongrass plant response rating: 62 g ai/ha, scale 0 to 100
Procedure, shortened: as §2

[13] = tested on: nutsedge, yellow; experiment: Test C postemergence; type: in vivo, Cyperus esculentus; details: for Plant response rating (scale of 0 to 100 where 0 is no effect and 100 is complete control), Nutsedge, Yellow: Postemergence, 31 g ai/ha, visually evaluated after 13 to 15 days; for Nutsedge, Yellow plant response rating / Plant response rating, Nutsedge, Yellow: postemergence; for Nutsedge, Yellow plant response rating: 62 g ai/ha, scale 0 to 100
Procedure, shortened: as §2

[14] = tested on: ragweed; experiment: Test C postemergence; type: in vivo, Ambrosia elation; details: postemergence
Procedure, shortened: as §2

[15] = tested on: soybean; experiment: Test C postemergence; type: in vivo, Glycine max; details: postemergence; for Plant response rating, Soybean: 250 g ai/ha, scale 0 to 100 (0 no effect, 100 complete control); for Soybean plant response rating: 125 g ai/ha, scale 0 to 100, 0 no effect, 100 complete control
Procedure, shortened: as §2

[16] = tested on: oilseed rape; experiment: Test C postemergence; type: in vivo, Brassica napus; details: postemergence; for Oilseed Rape plant response rating: 62 g ai/ha, scale 0 to 100
Procedure, shortened: as §2

[17] = 125 g ai/ha, 0 to 100 scale, 0 no effect, 100 complete control
[18] = 500 g ai/ha, 0 to 100 scale (0 no effect, 100 complete control)
[19] = 31 g ai/ha, visual rating, scale 0 to 100 (0 no effect, 100 complete control), 13 to 15 days
[20] = 62 g ai/ha, scale 0 to 100 (0 no effect, 100 complete control), 13 to 15 days
[21] = 250 g ai/ha, scale 0 to 100, 0 is no effect, 100 is complete control
[22] = 250 g ai/ha, scale 0 to 100 (0 no effect, 100 complete control)
[23] = 125 g ai/ha, scale 0 to 100, 0 no effect, 100 complete control

For CCCNC(=O)c1cc(CCC)n(Cc2cc(C(F)(F)F)nn2C)n1 [Compound 198], the “Crabgrass, Large plant response rating (0 to 100 scale)” value [1] was 100, the “Crabgrass, Large plant response rating” value [1] was 100 and the “Wheat plant response rating (0 to 100 scale)” value [2] was 60. For the same compound, the “Wheat plant response rating” value [2] was 100, the “Morningglory plant response rating” value [3, 17] was 80 and the “Morningglory plant response rating” value [3, 18] was 100. The “Ragweed plant response rating” value [4, 19] was 60, the “Ragweed plant response rating” value [4, 20] was 85 and the “Plant response rating, Ragweed” value ([4]; 13 to 15 days) was 98. For the same compound, the “Ragweed plant response rating” value [4, 21] was 100, the “Soybean plant response rating” value [5, 19] was 75 and the “Soybean plant response rating” value [5, 20] was 90. For the same compound, the “Plant response rating, Soybean” value ([5]; 13 to 15 days) was 98, the “Soybean plant response rating” value [5, 21] was 98 and the “Barnyardgrass plant response rating” value [6, 19] was 100. For the same compound, the “Barnyardgrass plant response rating” value [6, 20] was 100, the “Plant response rating, Barnyardgrass” value ([6]; 13 to 15 days) was 100 and the “Barnyardgrass plant response rating” value [6, 21] was 100. The “Waterhemp plant response rating” value [7, 19] was 98, the “Waterhemp plant response rating” value [7, 20] was 98 and the “Plant response rating, Waterhemp” value ([7]; 13 to 15 days) was 100. The “Waterhemp plant response rating” value [7, 21] was 100, the “Velvetleaf plant response rating” value [8, 19] was 35 and the “Velvetleaf plant response rating” value [8, 20] was 85. The “Plant response rating, Velvetleaf” value ([8]; 13 to 15 days) was 100, the “Velvetleaf plant response rating” value [8, 21] was 100 and the “Plant response rating, Ryegrass, Italian” value [9, 22] was 5. For the same compound, the “Plant response rating, Ryegrass, Italian” value [9, 23] was 5, the “Plant response rating (scale of 0 to 100 where 0 is no effect and 100 is complete control), Corn” value [10] was 5 and the “Corn plant response rating” value [10] was 10. The “Plant response rating, Corn” value [10, 22] was 15, the “Plant response rating, Corn” value [10, 23] was 10 and the “Plant response rating (scale of 0 to 100 where 0 is no effect and 100 is complete control), Foxtail, Giant” value [11] was 10. The “Foxtail, Giant plant response rating” value [11] was 10, the “Plant response rating, Foxtail, Giant” value [11, 22] was 55 and the “Plant response rating, Foxtail, Giant” value [11, 23] was 15. The “Plant response rating (scale of 0 to 100 where 0 is no effect and 100 is complete control), Johnsongrass” value [12] was 5, the “Johnsongrass plant response rating” value [12] was 5 and the “Plant response rating, Johnsongrass” value [12, 22] was 10. For the same compound, the “Plant response rating, Johnsongrass” value [12, 23] was 5, the “Plant response rating (scale of 0 to 100 where 0 is no effect and 100 is complete control), Nutsedge, Yellow” value [13] was 5 and the “Nutsedge, Yellow plant response rating” value [13] was 10. For the same compound, the “Plant response rating, Nutsedge, Yellow” value [13, 22] was 5, the “Plant response rating, Nutsedge, Yellow” value [13, 23] was 5 and the “Plant response rating, Ragweed” value [14, 22] was 80. For the same compound, the “Plant response rating, Ragweed” value [14, 23] was 55, the “Plant response rating, Soybean” value [15] was 95 and the “Soybean plant response rating” value [15] was 95. The “Oilseed Rape plant response rating” value [16] was 50, the “Plant response rating, Oilseed Rape” value [16, 22] was 60 and the “Plant response rating, Oilseed Rape” value [16, 23] was 70.

CCc1cc(C(=O)NCC2CC2)nn1Cc1ccnc(C(F)(F)F)c1 [Compound 199] was tested, and the “Crabgrass, Large plant response rating (0 to 100 scale)” value [1] was 100, the “Crabgrass, Large plant response rating” value [1] was 100 and the “Wheat plant response rating (0 to 100 scale)” value [2] was 90. The “Wheat plant response rating” value [2] was 100, the “Morningglory plant response rating” value [3, 17] was 90 and the “Morningglory plant response rating” value [3, 18] was 100. For the same compound, the “Ragweed plant response rating” value [4, 19] was 30, the “Ragweed plant response rating” value [4, 20] was 85 and the “Plant response rating, Ragweed” value ([4]; 13 to 15 days) was 95. For the same compound, the “Ragweed plant response rating” value [4, 21] was 95, the “Soybean plant response rating” value [5, 19] was 30 and the “Soybean plant response rating” value [5, 20] was 55. For the same compound, the “Plant response rating, Soybean” value ([5]; 13 to 15 days) was 90, the “Soybean plant response rating” value [5, 21] was 95 and the “Barnyardgrass plant response rating” value [6, 19] was 95. For the same compound, the “Barnyardgrass plant response rating” value [6, 20] was 100, the “Plant response rating, Barnyardgrass” value ([6]; 13 to 15 days) was 100 and the “Barnyardgrass plant response rating” value [6, 21] was 100. The “Waterhemp plant response rating” value [7, 19] was 98, the “Waterhemp plant response rating” value [7, 20] was 100 and the “Plant response rating, Waterhemp” value ([7]; 13 to 15 days) was 100. The “Waterhemp plant response rating” value [7, 21] was 100, the “Velvetleaf plant response rating” value [8, 19] was 40 and the “Velvetleaf plant response rating” value [8, 20] was 100. The “Plant response rating, Velvetleaf” value ([8]; 13 to 15 days) was 100, the “Velvetleaf plant response rating” value [8, 21] was 100 and the “Plant response rating, Ryegrass, Italian” value [9, 22] was 10. For the same compound, the “Plant response rating, Ryegrass, Italian” value [9, 23] was 10, the “Plant response rating (scale of 0 to 100 where 0 is no effect and 100 is complete control), Corn” value [10] was 5 and the “Corn plant response rating” value [10] was 10. The “Plant response rating, Corn” value [10, 22] was 65, the “Plant response rating, Corn” value [10, 23] was 85 and the “Plant response rating (scale of 0 to 100 where 0 is no effect and 100 is complete control), Foxtail, Giant” value [11] was 10. For the same compound, the “Foxtail, Giant plant response rating” value [11] was 10, the “Plant response rating, Foxtail, Giant” value [11, 22] was 50 and the “Plant response rating, Foxtail, Giant” value [11, 23] was 50. For the same compound, the “Plant response rating (scale of 0 to 100 where 0 is no effect and 100 is complete control), Johnsongrass” value [12] was 5, the “Johnsongrass plant response rating” value [12] was 5 and the “Plant response rating, Johnsongrass” value [12, 22] was 55. For the same compound, the “Plant response rating, Johnsongrass” value [12, 23] was 40, the “Plant response rating (scale of 0 to 100 where 0 is no effect and 100 is complete control), Nutsedge, Yellow” value [13] was 5 and the “Nutsedge, Yellow plant response rating” value [13] was 10. For the same compound, the “Plant response rating, Nutsedge, Yellow” value [13, 22] was 20, the “Plant response rating, Nutsedge, Yellow” value [13, 23] was 45 and the “Plant response rating, Ragweed” value [14, 22] was 75. The “Plant response rating, Ragweed” value [14, 23] was 20, the “Plant response rating, Soybean” value [15] was 95 and the “Soybean plant response rating” value [15] was 75. For the same compound, the “Oilseed Rape plant response rating” value [16] was 45, the “Plant response rating, Oilseed Rape” value [16, 22] was 65 and the “Plant response rating, Oilseed Rape” value [16, 23] was 55.
